# Results from patent US8551951B2, “Pharmaceutical preparations and methods for inhibiting tumors” (Aenorasis SA Pharmaceuticals and Medical Devices, priority 2000, dated 2013).
# Tests used:
# Mat Ly Lu (MLL) tumor [1] = assay: Study MLL-1, Mat LyLu tumor implanted in nude mice; assay type: in vivo; details: Doxorubicin 5 mg/kg i.v. single bolus on day 3; p=0.006
# Method: (§1) Studies MLL-1 and MLL-2 were performed as follows; on day 0, male Copenhagen rats were injected subcutaneously with 5×10^5 Mat LyLu cells per rat. These cells were derived from cultures of Mat LyLu cell line grown in RPMI media containing 10% (v/v) of fetal calf serum in logarithmic phase of growth. Cells were harvested from the culture flasks by trypsinization, were centrifuged at 1200 rotation per minute (rpm) and washed three timed with Hanks balanced salt solution (HBSS). Following washing, cells were counted and adjusted to a concentration of 5×10^6 cells/ml in HBSS. A 0.1 ml volume of tumor cell inoculum containing 5×10^5 cells was administered subcutaneously into the flank region of each rat. Three days after tumor cell implantation (i.e., inoculation), animals were treated daily by a subcutaneous injection of the desired polypeptide until day 13.
# Experiments illustrated in FIG. 12 show the anti-tumor efficacy validation of rHuPSP94 against Mat LyLu (MLL) tumor implanted in nude mice (Protocol based on S. Garde et al.; The Prostate, 22: 225-233, 1993).
# For study MLL-1 (FIG. 12), tumor-implanted nude mice were separated in different groups, each receiving various amount of rHuPSP94 or control reagents. The different groups used in these experiments are illustrated below. Each group contained 8 mice.
# Dunning Mat Ly Lu tumors = assay: Studies MLL-5 and MLL-6, Mat Ly Lu tumor implanted in Copenhagen rats; assay type: in vivo; details: Doxorubicin 5000 μg/kg single bolus i.v. on day 3 p.t.i
# Method: Anti-tumor efficacy evaluation of PCK3145 against Mat Ly Lu (MLL) tumor implanted in Copenhagen rats was performed. (Protocol based on S. Garde et al.; The Prostate, 22: 225-233, 1993). Mat LyLu tumor cells were harvested in mid-log phase from the culture flasks by trypsinization, were centrifuged at 1200 rotation per minute (rpm) and washed three timed with Hanks balanced salt solution (HBSS). Following washing, cells were counted and adjusted to a concentration of 5×10^6 cells/ml in HBSS. A 0.1 ml volume of tumor cell inoculum containing 5×10^5 cells was administered subcutaneously into the flank region of each rat. Treatment started at day 3 post-tumor implantation (p.t.i) by local subcutaneous injection (i.e., in the shaved back area just below tumor implantation site) of various PCK3145 concentrations. This treatment was continued daily for 16 days. Experiments were terminated 24 hours after the last treatment. Tumor measurements were taken at days 7, 9, 11, 14, 16 and 18. Tumor volumes are calculated according to formula (a×b^2×0.5), where a—is the length of the long diameter, b—width of the perpendicular small diameter. At day 19 tumors of individual rats were excised and weighed.
# Study No: MLL-5 illustrates the efficacy of PCK3145 (SEQ ID NO: 5) compared with polypeptide 7-21 (SEQ ID NO: 4) and polypeptide 76-94 (SEQ ID NO: 6) in tumor growth retardation in Copenhagen rats, which have received Mat Ly Lu implants. Mice were separated in different groups, each receiving various amount of PCK3145 (SEQ ID NO: 5) or control reagents. PCK3145 was injected through the subcutaneous route. The different groups used in these experiments are illustrated in table 8 below. Each group contained 8 mice.
# Study No: MLL-6 illustrates the efficacy of PCK3145 (SEQ ID NO: 5) in tumor growth retardation in Copenhagen rats, which have received Mat Ly Lu implants. Mice were separated in different group each receiving various amounts of PCK3145 (SEQ ID NO: 5) or control reagents. PCK3145 was injected through the subcutaneous route. The different groups used in these experiments are illustrated in table 9 below. Each group contained 8 mice. Doxorubicin was administered as single bolus via intra-venous injection on day 3 p.t.i.
# human PC-3 tumor = assay: Studies PC3-6 and PC3-12, human PC-3 prostate cancer nude mouse xenograft model; assay type: in vivo, nude mice; details: Doxorubicin 10000 μg/kg single bolus i.v. on days 3 and 11 p.t.i
# From the text: Studies PC3-6 and PC3-12 (FIGS. 26-27) are consecutive group experiments designed to characterize the in vivo activity of PCK3145 in the human PC-3 prostate cancer nude mouse xenograft model and to explore relationships between dose, route and schedule of administration and the efficacy parameters of tumor growth (volume).
# PC-3 cells harvested in mid-log phase were inoculated at 5×10^6 cells per mice via the subcutaneous route in the mice's back area. Tumors grown from this inoculum were excised at approximately day 32 to 35 post-tumor implantation (p.t.i) when tumor volume reached 200-300 mm^3 (i.e., cu mm). The necrotic tissue was removed and the viable tumor mass cut into small pieces (approximately 1 to 3 mm^3) were implanted SC in the flank region at two opposite sites of the mouse. Treatment with various concentrations of PCK3145 was initiated at day 3 post-tumor implantation (p.t.i) and was continued daily for 21 days. Subcutaneous injections were done below tumor growth sites. Intra-peritoneal injections were performed in the abdominal region. Intra-venous injections were performed via the lateral tail vein. The experiment was terminated 24 hours after the last treatment. Tumor measurements were taken at Days 11, 14, 16, 18, 20, 22 and 24 post-tumor implantation (p.t.i). Tumor volumes were calculated according to formula (a×b^2×0.5), where a—is the length of the long diameter, and b—is the width of the perpendicular small diameter.
# Study No: PC3-6 illustrates the efficacy of PCK3145, injected subcutaneously, in tumor growth retardation in Nude mice, which have received PC-3 implants. Mice were separated in different group each receiving various amounts of PCK3145 (SEQ ID NO: 5) or control reagents. The different groups used in these experiments are illustrated in table 6 below. Each group contained 10 mice. Doxorubicin was administered as single bolus intra-venous injection on days 3 and 11 post-tumor implantation (p.t.i).
# Study No: PC3-12 illustrates the efficacy of PCK3145 in tumor growth retardation in Nude mice, which have received PC-3 implants. Mice were separated in different group each receiving various amounts of PCK3145 (SEQ ID NO: 5) or control reagents. PCK3145 was injected either through intra-venous or intra-peritoneal route. The different groups used in these experiments are illustrated in table 7 below. Each group contained 9 mice.
# PC-3 cells = assay: DNA fragmentation assay (DNA ladder, apoptosis); assay type: cell-based, human
# Method: Cell apoptosis result in DNA fragmentation can be evaluated by the presence of a DNA ladder visualized when DNA is run on a 1.2% agarose gel. DNA ladder assay (apoptosis assay) was performed following exposure of PC-3 to various concentrations of the polypeptides for 72 hours. The polypeptides that were used in this particular experiment are polypeptide 7-21 (SEQ ID NO: 4), polypeptide PCK3145 (SEQ ID NO: 5) and polypeptide 76-94 (SEQ ID NO: 6). […] This effect was especially evident following treatment with PCK3145 (SEQ ID NO: 5), which is illustrated by FIG. 7. Lane 1 of the gel illustrated in FIG. 7 represents a lambda HindIII digest standard.
# Apoptosis of PC-3 cells, following a 72 hours exposure to PCK3145 at 500 μg/ml concentration, was evaluated in supplemented media by DNA fragmentation assay. Doxorubicin was used as a reference positive control. Untreated cells and PCK3145-treated cells were harvested and the DNA was isolated. Isolated DNA was run on a 1.2% agarose gel containing Ethidium Bromide (EtBr). […] Lane 1 of the gel illustrated in FIG. 25 represents the DNA marker (100 base pair DNA ladder). Lane 2 of the gel illustrated in FIG. 25 represents a control of untreated PC-3 cells.
# Mat Ly Lu (MLL) tumor [2] = assay: Study MLL-2, Mat Ly Lu tumor implanted in SCID mice; assay type: in vivo; details: Doxorubicin 5 mg/kg i.v. single bolus on day 3; p=0.002
# Method: as §1
# Experiments illustrated in study MLL-2 show the anti-tumor efficacy validation of rHuPSP94 against Mat Ly Lu (MLL) tumor implanted in severe combined immunodeficiency (SCID) mice (Protocol based on S. Garde et al.; The Prostate, 22: 225-233, 1993).
# For study MLL-2 (FIG. 13), tumor-implanted Scid mice were separated in different groups each receiving various amounts of rHuPSP94 or control reagents. The different groups used in these experiments are illustrated below. Each group contained 8 mice.
structure (smiles),measurement,setting,value
"COc1cccc2c1C(=O)c1c(O)c3c(c(O)c1C2=O)C[C@@](O)(C(=O)CO)C[C@@H]3O[C@H]1C[C@H](N)[C@H](O)[C@H](C)O1 [Doxorubicin, reference compound]",tumor weight reduction,Mat Ly Lu (MLL) tumor [1],48%
same,"reduction in tumor volumes, study MLL-6",Dunning Mat Ly Lu tumors,over 80%
same,"tumor growth (volume), study PC3-6",human PC-3 tumor,highly significant anti-tumor therapeutic effect
same,DNA laddering effect (FIG. 25 lane 3),PC-3 cells; 2 μg/ml,DNA laddering effect
same,DNA laddering effect (FIG. 7 lane 2),PC-3 cells; doxorubicin-treated cells,DNA laddering effect
same,tumor weight reduction,Mat Ly Lu (MLL) tumor [2],82%
